Where “and” joins values, the source holds several entries; their conditions need not be identical. Equal values may be shown once.
What was measured:
tumor biopsies = assay: CIBERSORTx cell-type deconvolution of tumor biopsy RNA-Seq; assay type: in vivo, human; settings: individual patients
Procedure: signatures for heatmap construction were used from MSigDB (49) and cell-type-related
transcripts from NanoString annotations and Bindea et al (50). Cell-type deconvolution was
performed using CIBERSORTx (51). […]

[1] = Treatment-related adverse events (CTCAE v4.03), PATRIOT phase I; assay type: in vivo; settings: for TRAE Overall events: n: Total
Procedure: For part A (dose escalation; Figure 1, A and B), the starting dose of 20 mg was selected based on animal toxicity studies. Dosing was continuous, and escalation used a modified Fibonacci method. Initial dose escalation was planned in single patient cohorts, changing to 3+3 design after the first grade-2 toxicity was seen. […] DLT definitions are in the Supplemental Methods.
For part B, all patients received the RP2D as defined for part A. Part B allowed for different schedules (continuous/intermittent) to be assessed. Initially, a continuous dosing schedule was used for the first 6 patients. […] Pretreatment biopsy was mandatory in part B. DNA-Seq of archival tumor material or review of external tumor sequencing was used to enrich for patients with putative genomic markers of sensitivity to ATRi, based on preclinical data, including oncogene amplification or driver mutation, ATM/G1 pathway defects (alteration in ATM, CHK2, or other components of the pathway causing G1 cell-cycle arrest after DNA damage), SWI/SNF (switch/sucrose nonfermentable, a chromatin-remodeling complex) pathway defect, genomic instability/homologous recombination deficit (HRD), or defect in a gene synthetically lethal with ATRi in published data ([46], [47]) (Figure 1B and Supplemental Table 3).
Patients were assessed weekly during cycle 1 and twice weekly thereafter, with safety assessments including blood hematology and biochemistry, physical examination, and toxicity scoring.

plasma cytokines = assay: Plasma cytokines, Bio-Plex Pro 27-plex; assay type: in vivo, human; settings: after 2 weeks of treatment
Procedure: DNA-Seq of tumor and matched buffy coats was either by whole-exome sequencing or a custom-designed panel targeting all exons of genes of interest for 173 genes, including potential markers of sensitivity to ATRi. ACK-lysed whole blood or PBMCs were stained for flow cytometry using 8 multicolor panels. Plasma cytokines were assessed using the Bio-Plex Pro 27-Plex Panel (Bio-Rad). See Supplemental Methods for full information.
Plasma was taken from EDTA tubes (BD vacutainer) used for buffy coat or immune profiling samples. Plasma was removed, re-spun and aliquoted into 1.5 mL tubes and stored at -70 OC until analysis. Samples were run in duplicate using the Bio-Plex Pro Human Cytokine 27-plex panel (Bio-Rad) as per manufacturer’s instructions.
Criteria for Dose Limiting Toxicity
1. Hematological toxicity
1. Grade 3 thrombocytopenia with bleeding
2. Grade 4 thrombocytopenia
3. Grade 4 neutropenia lasting >7 days in the absence of growth factor
4. Grade 4 neutropenia of any duration accompanied by fever ≥ 38.5°C and/or systemic infection
5. Any other grade ≥4 hematological toxicity
2. Cardiovascular toxicity
1. Clinically significant hypotension defined as an asymptomatic fall in systolic blood pressure more than 20mmHg to below 70mmHg persisting for at least 10 minutes
2. Symptomatic orthostatic fall in systolic blood pressure of more than 20mmHg compared to resting supine blood pressure
3. Prolongation of QTc >0.5 seconds (using an appropriate correction […]
3. Gastrointestinal/hepatic toxicity
1. ALT or AST >5 times ULN; ALP >5 times ULN with elevated gamma- GT

[2] = 160 mg BD intermittent schedule

C[C@@H]1COCCN1c1cc(C2([S@](C)(=N)=O)CC2)nc(-c2cc[nH]c3nccc2-3)n1 [ceralasertib]
CIBERSORTx proportion CD8, on-treatment tumor biopsy (tumor biopsies; D15 PR): 0
CIBERSORTx proportion M0 Mac, on-treatment tumor biopsy (tumor biopsies; D15 PR): 0.1391 and 0.5318 and 0.5438
CIBERSORTx proportion M1 Mac, on-treatment tumor biopsy (tumor biopsies; D15 PR): 0.1372 and 0 (2×)
CIBERSORTx proportion M2 Mac, on-treatment tumor biopsy (tumor biopsies; D15 PR): 0.1138 and 0.03909 and 0.06393
CIBERSORTx proportion Naive B, on-treatment tumor biopsy (tumor biopsies; D15 PR): 0.01104 and 0.04034 and 0
CIBERSORTx proportion Naive CD4, on-treatment tumor biopsy (tumor biopsies; D15 PR): 0 and 0.0004844 and 0.004743
CIBERSORTx proportion Neutrophils, on-treatment tumor biopsy (tumor biopsies; D15 PR): 0.03549 and 0.1415 and 0.09333
CIBERSORTx proportion Treg, on-treatment tumor biopsy (tumor biopsies; D15 PR): 0
CIBERSORTx proportion active DC, on-treatment tumor biopsy (tumor biopsies; D15 PR): 0.02084 and 0.01306 and 0.1026
CIBERSORTx proportion active NK, on-treatment tumor biopsy (tumor biopsies; D15 PR): 0.09471 and 0 (2×)
CIBERSORTx proportion resting DC, on-treatment tumor biopsy (tumor biopsies; D15 PR): 0
CIBERSORTx proportion resting NK, on-treatment tumor biopsy (tumor biopsies; D15 PR): 0 and 0.07254 and 0.04433
CIBERSORTx proportion CD8, on-treatment tumor biopsy (tumor biopsies; D15 non-PR): 0 (3×) and 0.09128
CIBERSORTx proportion M0 Mac, on-treatment tumor biopsy (tumor biopsies; D15 non-PR): 0.07738 and 0.2479 and 0.5291 and 0.2524
CIBERSORTx proportion M1 Mac, on-treatment tumor biopsy (tumor biopsies; D15 non-PR): 0 (2×) and 0.002883 and 0.04168
CIBERSORTx proportion M2 Mac, on-treatment tumor biopsy (tumor biopsies; D15 non-PR): 0.325 and 0.00838 and 0.1257 and 0.0276
CIBERSORTx proportion Naive B, on-treatment tumor biopsy (tumor biopsies; D15 non-PR): 0 (2×) and 0.07794 and 0.002559
CIBERSORTx proportion Naive CD4, on-treatment tumor biopsy (tumor biopsies; D15 non-PR): 0
CIBERSORTx proportion Neutrophils, on-treatment tumor biopsy (tumor biopsies; D15 non-PR): 0 (2×) and 0.09632 and 0.04836
CIBERSORTx proportion Treg, on-treatment tumor biopsy (tumor biopsies; D15 non-PR): 0 (2×) and 0.01681 and 0.03886
CIBERSORTx proportion active DC, on-treatment tumor biopsy (tumor biopsies; D15 non-PR): 0.01626 and 0.04266 and 0 (2×)
CIBERSORTx proportion active NK, on-treatment tumor biopsy (tumor biopsies; D15 non-PR): 0.08744 and 0 (2×) and 0.005269
CIBERSORTx proportion resting DC, on-treatment tumor biopsy (tumor biopsies; D15 non-PR): 0 (3×) and 0.002776
CIBERSORTx proportion resting NK, on-treatment tumor biopsy (tumor biopsies; D15 non-PR): 0 and 0.1019 and 0.06313 and 0.04038
TRAE Overall events: n (%) ([1]; 40 mg BD, G1–2): 7 (100)
TRAE Overall events: n (%) ([1]; 40 mg BD, G3): 0
TRAE Overall events: n ([1]; 40 mg BD): 7
TRAE Overall events: n (%) ([1]; 80 mg BD, G1–2): 18 (78)
TRAE Overall events: n (%) ([1]; 80 mg BD, G3): 5 (22)
TRAE Overall events: n ([1]; 80 mg BD): 23
Tolerability of intermittent versus continuous schedule ([1]; 160 mg BD): better tolerated
Incidence of G3 leukopenia ([1]; 160 mg BD continuous schedule): 8%
Incidence of G3 or greater anemia ([1]; 160 mg BD continuous schedule): 33%
TRAE Overall events: n (%) ([1]; 160 mg BD continuous, G1–2): 44 (90)
TRAE Overall events: n (%) ([1]; 160 mg BD continuous, G3): 5 (10)
TRAE Overall events: n ([1]; 160 mg BD continuous): 49
Incidence of G3 leukopenia [1, 2]: 0%
Incidence of G3 or greater anemia [1, 2]: 9%
TRAE Overall events: n (%) ([1]; 160 mg BD intermittent, G1–2): 100 (89)
TRAE Overall events: n (%) ([1]; 160 mg BD intermittent, G3): 11 (10)
TRAE Overall events: n (%) ([1]; 160 mg BD intermittent, G4): 1 (1)
TRAE Overall events: n ([1]; 160 mg BD intermittent): 112
TRAE Overall events: n (%) ([1]; 240 mg BD, G1–2): 26 (77)
TRAE Overall events: n (%) ([1]; 240 mg BD, G3): 8 (24)
TRAE Overall events: n (%) ([1]; 240 mg BD, G4): 7 (21)
Related SAE ([1]; 20 and 40 mg dose levels): N o related SAE
Treatment-related deaths ([1]; all 67 treated patients): no treatment-related deaths
Patients requiring dose reduction or interruption for toxicity ([1]; continuous schedule (incl. part A), 6 of 12): 50%
Patients withdrawn due to toxicity ([1]; dose-escalation phase): Four
Patients withdrawn due to toxicity ([1]; dose-expansion phase): 1
Patients requiring dose reduction or interruption for toxicity ([1]; intermittent schedule, 10 of 35): 29%
Circulating CCL2 level (plasma cytokines): increase
Circulating CCL4 level (plasma cytokines): decrease
Circulating CCL5 level (plasma cytokines): decrease

Source: paper PMC10786692 (The Journal of Clinical Investigation, 2024)
